Peptide text beside a SMILES is read from it.
Test system: HSV1
Type: cell-based, Human herpes simplex virus type 1
Conditions: for efficacy for reducing HSV1 infectivity (in words): Examples 2 and 3
Method: African Green Monkey Kidney (Vero) cells were maintained in Eagle's minimum essential medium with Earle's salt (EMEM) and supplemented with 10% foetal calf serum (heat-inactivated), 4 mM L-glutamine, and 1% (v/v) nonessential amino acids, plus penicillin and streptomycin (100 IU/mg and […], respectively) (maintenance medium referred to as 10% EMEM). The cells were incubated at 37° C. in a humidified atmosphere of air with 5% CO2.
On harvesting, monolayers were washed in phosphate-buffered saline (PBS), and dislodged by incubating with trypsin in PBS for 30 min, before inactivating trypsin by addition of an equal volume of 10% EMEM and centrifuging at 500 g (5 min, 4° C.). Cell pellets were resuspended in 10% EMEM, prior to cell counting and seeding of 24-well plates. For antiviral assays, medium containing only 0.5% FCS was used (referred to as 0.5% EMEM).
Three separate passages of HSV1 virus were prepared by infecting Vero cells, and preparing semi-pure suspensions of virus from tissue culture supernatant and cell lysates, before freezing aliquots of virus at −85° C. Viral infectivity was assessed by carrying out plaque assays on serial dilutions of thawed aliquots (expressed in pfu/ml).
Peptides were obtained in lyophilised form from a commercial supplier (AltaBioscience, University of Birmingham or Advanced Biomedical), and were produced at 5 micromole scale. N-terminals were protected by addition of an acetyl group, and the C-terminals were protected by addition of an amide group.
Small quantities of peptide were weighed in sterile Eppendorf tubes, before addition of sufficient 0.5% EMEM to produce a 1.5 mM stock solution, which was frozen at −20° C. in aliquots.
Vero cells were seeded at 125,000 cells per well in 10% EMEM, and were incubated overnight resulting in confluent monolayers. […] Virus stocks (p3) were thawed, and diluted in 0.5% EMEM such that there were around 100 pfu in 100 μl. Each 24-well plate was inoculated separately. Firstly 100 μl of virus stock was added to the peptide or control medium arranged on a 96-well plate. This was incubated at 37° C. for ten minutes before inoculation. Medium was removed from four wells of a 24-well plate containing confluent Vero, and the 200 μl inoculum added to the appropriate well. Once all wells were treated, the 24-well plate was incubated for a further 60-80 minutes. Finally the peptide-containing inoculum was removed, and 1 ml of 1% EMEM containing 1% carboxymethylcellulose was added to each well. Plates were incubated for a further 22 hours or in some experiments 40 hours, before removal of overlay, and addition of 10% formaldehyde in PBS. After a further one hour incubation, fixative was removed, monolayers washed several times with tap water, and stained with carbol fuchsin solubilised in water. After 30 minutes stain was removed, and plates washed several times with tap water, before being air dried. Plaques were counted using an Olympus IX70 Inverting Microscope, and antiviral effect expressed as a percentage of the control value for each peptide concentration. The IC50 was calculated from plots of inhibitory effect against peptide concentration.

| Compound | IC50 | efficacy for reducing HSV1 infectivity (in words) |
| --- | --- | --- |
| CC(=O)N[C@@H](CC(C)C)C(=O)N[C@@H](CC(C)C)C(=O)N[C@@H](CCCNC(=N)N)C(=O)N[C@@H](CCCCN)C(=O)N[C@@H](CCCNC(=N)N)C(=O)N[C@@H](CC(C)C)C(=O)N[C@@H](CCCCN)C(=O)N[C@@H](CCCNC(=N)N)C(=O)N[C@@H](CC(C)C)C(=O)N[C@@H](CC(C)C)C(=O)N[C@@H](CC(C)C)C(=O)N[C@@H](CCCNC(=N)N)C(=O)N[C@@H](CCCCN)C(=O)N[C@@H](CCCNC(=N)N)C(=O)N[C@@H](CC(C)C)C(=O)N[C@@H](CCCCN)C(=O)N[C@@H](CCCNC(=N)N)C(=O)N[C@@H](CC(C)C)C(N)=O [MU 24] (Ac-LLRKRLKRLLLRKRLKRL-NH2) | 40 µM | – |
| CC(=O)N[C@@H](CC(C)C)C(=O)N[C@@H](CCCNC(=N)N)C(=O)N[C@@H](CCC(N)=O)C(=O)N[C@@H](CC(C)C)C(=O)N[C@@H](CCCNC(=N)N)C(=O)N[C@@H](CCC(N)=O)C(=O)N[C@@H](CCCNC(=N)N)C(=O)N[C@@H](CC(C)C)C(=O)N[C@@H](CC(C)C)C(=O)N[C@@H](CC(C)C)C(=O)N[C@@H](CCCNC(=N)N)C(=O)N[C@@H](CCC(N)=O)C(=O)N[C@@H](CC(C)C)C(=O)N[C@@H](CCCNC(=N)N)C(=O)N[C@@H](CCC(N)=O)C(=O)N[C@@H](CCCNC(=N)N)C(=O)N[C@@H](CC(C)C)C(=O)N[C@@H](CC(C)C)C(N)=O [GIN 44] (Ac-LRQLRQRLLLRQLRQRLL-NH2) | 40 µM | – |
| CC(=O)N[C@@H](Cc1ccccc1)C(=O)N[C@@H](CCCNC(=N)N)C(=O)N[C@@H](CCCCN)C(=O)N[C@@H](Cc1ccccc1)C(=O)N[C@@H](CCCNC(=N)N)C(=O)N[C@@H](CCCCN)C(=O)N[C@@H](CCCNC(=N)N)C(=O)N[C@@H](Cc1ccccc1)C(=O)N[C@@H](Cc1ccccc1)C(=O)N[C@@H](Cc1ccccc1)C(=O)N[C@@H](CCCNC(=N)N)C(=O)N[C@@H](CCCCN)C(=O)N[C@@H](Cc1ccccc1)C(=O)N[C@@H](CCCNC(=N)N)C(=O)N[C@@H](CCCCN)C(=O)N[C@@H](CCCNC(=N)N)C(=O)N[C@@H](Cc1ccccc1)C(=O)N[C@@H](Cc1ccccc1)C(N)=O [MU 7] (Ac-FRKFRKRFFFRKFRKRFF-NH2) | > 30 µM | – |
| CC(=O)N[C@@H](CC(C)C)C(=O)N[C@@H](CCCNC(=N)N)C(=O)N[C@@H](CCCCN)C(=O)N[C@@H](CC(C)C)C(=O)N[C@@H](CCCNC(=N)N)C(=O)N[C@@H](CCCCN)C(=O)N[C@@H](CCCNC(=N)N)C(=O)N[C@@H](CC(C)C)C(=O)N[C@@H](CC(C)C)C(=O)N[C@@H](CC(C)C)C(=O)N[C@@H](CCCNC(=N)N)C(=O)N[C@@H](CCCCN)C(N)=O [GIN 5] (Ac-LRKLRKRLLLRK-NH2) | > 40 µM | no, or poor, efficacy |
| CC(=O)N[C@@H](CCCNC(=N)N)C(=O)N[C@@H](CC(=O)O)C(=O)N[C@@H](C)C(=O)N[C@@H](CC(=O)O)C(=O)N[C@@H](CC(=O)O)C(=O)N[C@@H](CC(C)C)C(=O)N[C@@H](CCC(N)=O)C(=O)N[C@@H](CCCCN)C(=O)N[C@@H](CCCNC(=N)N)C(=O)N[C@@H](CCCNC(=N)N)C(=O)N[C@@H](CC(=O)O)C(=O)N[C@@H](C)C(=O)N[C@@H](CC(=O)O)C(=O)N[C@@H](CC(=O)O)C(=O)N[C@@H](CC(C)C)C(=O)N[C@@H](CCC(N)=O)C(=O)N[C@@H](CCCCN)C(=O)N[C@@H](CCCNC(=N)N)C(N)=O [GIN 13, RDADDLQKR RDADDLQKR] (Ac-RDADDLQKRRDADDLQKR-NH2) | > 40 µM | no, or poor, efficacy |
| CC(=O)N[C@@H](CC(C)C)C(=O)N[C@@H](CCCCN)C(=O)N[C@@H](CCCCN)C(=O)N[C@@H](CC(C)C)C(=O)N[C@@H](CCCCN)C(=O)N[C@@H](CCCCN)C(=O)N[C@@H](CCCCN)C(=O)N[C@@H](CC(C)C)C(=O)N[C@@H](CC(C)C)C(=O)N[C@@H](CC(C)C)C(=O)N[C@@H](CCCCN)C(=O)N[C@@H](CCCCN)C(=O)N[C@@H](CC(C)C)C(=O)N[C@@H](CCCCN)C(=O)N[C@@H](CCCCN)C(=O)N[C@@H](CCCCN)C(=O)N[C@@H](CC(C)C)C(=O)N[C@@H](CC(C)C)C(N)=O [MU 39] (Ac-LKKLKKKLLLKKLKKKLL-NH2) | 30 µM | – |
| CC(=O)N[C@@H](CCC(N)=O)C(=O)N[C@@H](CCCNC(=N)N)C(=O)N[C@@H](CCCCN)C(=O)N[C@@H](CCC(N)=O)C(=O)N[C@@H](CCCNC(=N)N)C(=O)N[C@@H](CCCCN)C(=O)N[C@@H](CCCNC(=N)N)C(=O)N[C@@H](CCC(N)=O)C(=O)N[C@@H](CCC(N)=O)C(=O)N[C@@H](CCC(N)=O)C(=O)N[C@@H](CCCNC(=N)N)C(=O)N[C@@H](CCCCN)C(=O)N[C@@H](CCC(N)=O)C(=O)N[C@@H](CCCNC(=N)N)C(=O)N[C@@H](CCCCN)C(=O)N[C@@H](CCCNC(=N)N)C(=O)N[C@@H](CCC(N)=O)C(=O)N[C@@H](CCC(N)=O)C(N)=O [MU 9] (Ac-QRKQRKRQQQRKQRKRQQ-NH2) | > 30 µM | – |
| CC(=O)N[C@@H](Cc1c[nH]c2ccccc12)C(=O)N[C@@H](CCCNC(=N)N)C(=O)N[C@@H](CCCCN)C(=O)N[C@@H](Cc1c[nH]c2ccccc12)C(=O)N[C@@H](CCCNC(=N)N)C(=O)N[C@@H](CCCCN)C(=O)N[C@@H](CCCNC(=N)N)C(=O)N[C@@H](Cc1c[nH]c2ccccc12)C(=O)N[C@@H](Cc1c[nH]c2ccccc12)C(=O)N[C@@H](Cc1ccccc1)C(=O)N[C@@H](CCCNC(=N)N)C(=O)N[C@@H](CCCCN)C(=O)N[C@@H](Cc1ccccc1)C(=O)N[C@@H](CCCNC(=N)N)C(=O)N[C@@H](CCCCN)C(=O)N[C@@H](CCCNC(=N)N)C(=O)N[C@@H](Cc1ccccc1)C(=O)N[C@@H](Cc1ccccc1)C(N)=O [MU 117] (Ac-WRKWRKRWWFRKFRKRFF-NH2) | 3.3 µM | – |
| ARKARKRAAARKARKRAA [GIN 39] | – | abolished antiviral activity |
| CC(=O)N[C@@H](CC(C)C)C(=O)N[C@@H](CCCNC(=N)N)C(=O)N[C@@H](CCCNC(=N)N)C(=O)N[C@@H](CC(C)C)C(=O)N[C@@H](CCCNC(=N)N)C(=O)N[C@@H](CCCNC(=N)N)C(=O)N[C@@H](CCCNC(=N)N)C(=O)N[C@@H](CC(C)C)C(=O)N[C@@H](CC(C)C)C(=O)N[C@@H](CC(C)C)C(=O)N[C@@H](CCCNC(=N)N)C(=O)N[C@@H](CCCNC(=N)N)C(=O)N[C@@H](CC(C)C)C(=O)N[C@@H](CCCNC(=N)N)C(=O)N[C@@H](CCCNC(=N)N)C(=O)N[C@@H](CCCNC(=N)N)C(=O)N[C@@H](CC(C)C)C(=O)N[C@@H](CC(C)C)C(N)=O [MU 38] (Ac-LRRLRRRLLLRRLRRRLL-NH2) | > 30 µM | – |
| CC(=O)N[C@@H](Cc1c[nH]c2ccccc12)C(=O)N[C@@H](CCCNC(=N)N)C(=O)N[C@@H](CCCCN)C(=O)N[C@@H](Cc1c[nH]c2ccccc12)C(=O)N[C@@H](CCCNC(=N)N)C(=O)N[C@@H](CCCCN)C(=O)N[C@@H](CCCNC(=N)N)C(=O)N[C@@H](Cc1c[nH]c2ccccc12)C(=O)N[C@@H](Cc1c[nH]c2ccccc12)C(=O)N[C@@H](CCCNC(=N)N)C(=O)N[C@@H](CCCCN)C(=O)N[C@@H](Cc1c[nH]c2ccccc12)C(=O)N[C@@H](CCCNC(=N)N)C(=O)N[C@@H](CCCCN)C(=O)N[C@@H](CCCNC(=N)N)C(=O)N[C@@H](Cc1c[nH]c2ccccc12)C(=O)N[C@@H](Cc1c[nH]c2ccccc12)C(N)=O [MU 58] (Ac-WRKWRKRWWRKWRKRWW-NH2) | 4.25 µM | – |
| CC(=O)N[C@@H](Cc1c[nH]c2ccccc12)C(=O)N[C@@H](CCCNC(=N)N)C(=O)N[C@@H](CCCCN)C(=O)N[C@@H](Cc1c[nH]c2ccccc12)C(=O)N[C@@H](CCCNC(=N)N)C(=O)N[C@@H](CCCCN)C(=O)N[C@@H](CCCNC(=N)N)C(=O)N[C@@H](Cc1c[nH]c2ccccc12)C(=O)N[C@@H](Cc1ccccc1)C(=O)N[C@@H](Cc1ccccc1)C(=O)N[C@@H](CCCNC(=N)N)C(=O)N[C@@H](CCCCN)C(=O)N[C@@H](Cc1c[nH]c2ccccc12)C(=O)N[C@@H](CCCNC(=N)N)C(=O)N[C@@H](CCCCN)C(=O)N[C@@H](CCCNC(=N)N)C(=O)N[C@@H](Cc1ccccc1)C(=O)N[C@@H](Cc1ccccc1)C(N)=O [MU 61] (Ac-WRKWRKRWFFRKWRKRFF-NH2) | 4.75 µM | – |
| CC(=O)N[C@@H](CCC(=O)O)C(=O)N[C@@H](CCCNC(=N)N)C(=O)N[C@@H](CCCCN)C(=O)N[C@@H](CCC(=O)O)C(=O)N[C@@H](CCCNC(=N)N)C(=O)N[C@@H](CCCCN)C(=O)N[C@@H](CCCNC(=N)N)C(=O)N[C@@H](CCC(=O)O)C(=O)N[C@@H](CCC(=O)O)C(=O)N[C@@H](CCC(=O)O)C(=O)N[C@@H](CCCNC(=N)N)C(=O)N[C@@H](CCCCN)C(=O)N[C@@H](CCC(=O)O)C(=O)N[C@@H](CCCNC(=N)N)C(=O)N[C@@H](CCCCN)C(=O)N[C@@H](CCCNC(=N)N)C(=O)N[C@@H](CCC(=O)O)C(=O)N[C@@H](CCC(=O)O)C(N)=O [GIN 6] (Ac-ERKERKREEERKERKREE-NH2) | > 40 µM | no, or poor, efficacy |
